In general, IC50 refers to the concentration needed to halve the response being measured.

Where a name gives a salt, the structure may show the parent alone.

These results are taken from US20210122746A1, “FEBRIFUGINE DERIVATIVES” (BRISTOL-MYERS SQUIBB COMPANY, priority 2017, published 2021).

In series [1] the target is T1, human ProRS (prolyl tRNA synthetase moiety of glutamyl prolyl tRNA synthetase) (Homo sapiens, UniProt P07814).
T1 construct: The prolyl tRNA synthetase moiety (ProRS) in the cDNA of glutamyl prolyl tRNA synthetase was subcloned; 6xHis (N, cleaved yes); made in house; host or cells: E. coli BL21 (DE3)
T1 sequence (P07814 1007-1512 limits assumed): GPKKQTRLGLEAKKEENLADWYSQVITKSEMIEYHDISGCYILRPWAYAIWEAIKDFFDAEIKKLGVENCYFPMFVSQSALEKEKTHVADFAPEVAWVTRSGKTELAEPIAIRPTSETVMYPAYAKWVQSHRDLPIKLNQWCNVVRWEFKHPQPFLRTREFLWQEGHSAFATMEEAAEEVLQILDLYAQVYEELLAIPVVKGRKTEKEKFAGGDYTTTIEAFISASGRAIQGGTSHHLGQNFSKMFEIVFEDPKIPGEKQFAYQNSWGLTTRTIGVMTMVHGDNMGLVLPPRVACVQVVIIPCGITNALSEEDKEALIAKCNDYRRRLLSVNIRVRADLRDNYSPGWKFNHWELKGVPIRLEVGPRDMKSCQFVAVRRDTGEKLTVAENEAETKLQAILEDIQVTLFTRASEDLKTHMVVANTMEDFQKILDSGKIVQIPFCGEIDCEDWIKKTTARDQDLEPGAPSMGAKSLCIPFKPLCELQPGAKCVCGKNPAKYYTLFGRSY
As to the kind of experiment: Assay for inhibitors of prolyl tRNA synthetase activity (ProRS assay, labeled proline incorporation). It is filed as biochemical. Conditions: ProRS 20 nM, compounds 10 μM to 0.5 nM, 10 min at 37° C.; read-out: EPR IC50. From the text:
In order to establish the activities of the compounds highlighted above, we determined extent of inhibition of prolyl tRNA synthetase activity in dose response curves to obtain IC50 values.
The prolyl tRNA synthetase moiety (ProRS) in the cDNA of glutamyl prolyl tRNA synthetase was subcloned, tagged with a single biotin, purified and used in the assay. Briefly, human ProRS with a 6× N-terminal His tag in pET28N with TVMV BioP was transformed in E. coli BL21 (DE3) cells, selected, overexpressed and purified using a Ni Seph 6 FF XK 16/20 column in the first stage. Ni-NTA eluates were pooled and treated with TVMV protease, and biotinylated using d-Biotin, MgCl2, ATP and the BirA enzyme. This was rerun through a Ni column as before. The eluates were further enriched and purified using membrane ultrafiltration and a SuperDex 200 XK 16/60 column, and peak fractions were confirmed by SDS-PAGE prior to protein amount determination, aliquoting and storage at −80° C.
ProRS assay was performed in 96 well plates in a final reaction volume of 20 μl, using staggered additions of Tris-Cl (pH 7.5, 60 mM), dithiothreitol (2 mM), ATP (5 mM, pH 7.0), MgCl2 6 mM), ProRS (20 nM, with pre-determined active fraction range) and bovine tRNA (20 μg). Controls and compounds, at various concentrations (10 μM to 0.5 nM), were incubated on ice with enzyme mix for 15 min followed by addition of proline (non-labeled and labeled, 3.96 and 1.04 μM (1 μCi) respectively) to initiate the reaction. Reaction was carried out for 10 min at 37° C. and terminated by addition of TCA (10%, 100 μl). Reaction mix was collected on a Whatman GF/B filter using a vacuum filtration manifold. This filter was washed 3 times with 5% TCA followed by 2 washes with ethanol, air dried, and read using a liquid scintillation counter (TopCount NXT) using MicroScint O. IC50 values were calculated and analyzed using ToolSet (4-parameter plot) and depicted herein.

In the next series the test system is Rat hepatocytes. As to the kind of experiment: GSH trapping assay. It is filed as in vitro ADME. As to conditions: 30 μM, 24 hr incubation, LC-MS detection of GSH adducts. The protocol: Rat hepatocytes were isolated from male Sprague-Dawley rats (Vivo Biotech Ltd, HYD, India), weighing 230 to 280 g by the two step collagenase perfusion method (seglen, 1976; Berry M N and Friend D S.1969). Rat hepatocytes were cultured in Dulbecco's Modified Eagle's Medium (DMEM, Gibco®, USA) supplemented with 10^−6M dexamethasone (Gibco®), 5% fetal bovine serum (Gibco®) and cocktail-A mix (CM3000, Gibco®) containing HEPES buffer (PH 7.4), GlutaMAX™, human recombinant insulin, penicillin and streptomycin. Initial cell viability assessed by Trypanblue stain 0.4% (Sigma, UK) and viability more than 80% were considered for culturing. Hepatocytes were seeded in 96 well type-I collagen coated plates (Gibco®) at 4×10^4 cells/well in 100 μL of the culture medium and incubated at 37° C. in 5% CO2 and 95% relative humidity (RH) for 4 hr of cell attachment.
After 4hr incubation, rat hepatocytes were washed twice with pre-warmed (37° C.) DMEM incubation medium supplemented with 10^−7M dexamethasone and cell maintenance cocktail-B (CM4000, Gibco®) solution to remove unattached cells. Post washing hepatocytes were treated with test and reference compounds in incubation medium at single concentration (30 μM) in duplicate and incubate further for 24 hr at 37° C. with 5% CO2 and 95% RH. The final concentration of DMSO in medium was 0.5%.
Post 24 hr incubation, hepatocyte samples were quenched with equal volumes of acetonitrile containing 0.1% formic acid followed by vortex mix, sonicate and centrifuge at 12000 rpm at room temperature for 5 min. Supernatant samples were analyzed for GSH adducts on a C18 reverse-phase column (Xbridge™ Shield, C18, 4.6×150 mm, 3.5 μm) with solvent A (10 mM ammonium formate and 0.1% formic acid/water) and solvent B (0.1% formic acid/acetonitrile).
The column was eluted with 5% B for 5 min and then with a linear gradient to 20% B over 10 min and it was maintained upto 15 min, then it was increased linearly to 40% B upto 27 min and then increase to 90% B upto 29 min, and then equilibrate back the column to 5% B upto 33 min at a flow rate of 0.6 ml/min. The column effluent was directed into the ESI source of a LTQ Velos Orbitrap mass spectrometer (Thermo Fisher Scientific, San Jose, Calif.). The ESI conditions were as follows: sheath gas flow rate, 40 arbitrary units; auxiliary gas, 30 arbitrary units; spray voltage, 4.5 kV; capillary temperature, 230° C.; capillary voltage, 30 V; and tube lens offset, 25 V. Data were acquired in positive ion mode using Xcalibur software (Thermo Fisher Scientific) with one full scan followed by two data-dependent scans of the most intense and the second most intense ions. During the data interpretation the characteristic fragments of neutral loss of glycine (75.0320 Da), pyroglutamic acid (129.0426 Da) and loss of neutral moiety GSH (307.0838 Da) and/or a specific fragment of (GSH+H)^+ (m/z 308.0911) were monitored. Finally, the fragments ions with m/z e.g. 179.0485, 177.0328 and 162.0219 Da, which were derived from the glutathione moiety were used to report GSH positive results.

For the compound `Cc1cc(C(F)(F)F)nc2c(=O)n(C[C@@H](O)C[C@H]3NCCC[C@@H]3O)cnc12` [Example 31, 3-{(S)-2-hydroxy-3-[(2R,3S)-3-hydroxypiperidin-2-yl]propyl}-8-methyl-6-(trifluoromethyl)pyrido[3,2-d]pyrimidin-4(3H)-one bis(2,2,2-trifluoroacetic acid)], the IC50 in series [1] turned out to be 416 nM. The GSH adduct formation entry in the series with Rat hepatocytes is “Negative”.

As to `Cc1cc(Cl)cn2c(=O)c(NC(=O)C[C@H]3NCCC[C@@H]3O)cnc12.Cl` [Example 39, N-(7-Chloro-9-methyl-4-oxo-4H-pyrido [1,2-a]pyrimidin-3-yl)-2-[(2R, 3S)-3-hydroxypiperidin-2-yl]acetamide hydrochloride], in series [1], the concentration for half-maximal inhibition (IC50) turned out to be 301 nM. For the same compound, the GSH adduct formation result in the series with Rat hepatocytes is “Negative”.

`Cc1cc(C)c2ncn(CC(=O)C[C@H]3NCCC[C@@H]3O)c(=O)c2n1` [Example 1, 3-{3-[(2R,3S)-3-Hydroxypiperidin-2-yl]-2-oxopropyl}-6,8-dimethylpyrido[3,2-d]pyrimidin-4(3H)-one dihydrochloride]: the half-inhibitory concentration (IC50) in series [1] came out at 28 nM. Also, the GSH adduct formation result in the series on Rat hepatocytes is reported as “Negative”.

For `Cc1cc(-c2cccnc2)nc2c(=O)n(CC(=O)C[C@H]3NCCC[C@@H]3O)cnc12` [Example 17, 3-{3-[(2R,3S)-3-hydroxypiperidin-2-yl]-2-oxopropyl}-8-methyl-6-(pyridin-3-yl)pyrido[3,2-d]pyrimidin-4(3H)-one trihydrochloride], in series [1], the half-maximal inhibitory concentration (IC50) came out at 12 nM.

Consider `Cc1cc(Cl)cc2c(=O)n(CC(=O)CC3CCCCN3)cnc12` (stereo not shown) [Example 3, 6-Chloro-8-methyl-3-[2-oxo-3-(piperidin-2-yl)propyl]quinazolin-4(3H)-one hydrochloride], for which, in series [1], the IC50 came out at 71 nM.

For the compound `O=c1c2nc(-c3cccc(C(F)(F)F)c3)ccc2ncn1C[C@@H](O)C[C@H]1NCCC[C@@H]1O` [Example 23, 3-{(S)-2-Hydroxy-3-[(2R,3S)-3-hydroxypiperidin-2-yl]propyl}-6-[3-(trifluoromethyl)phenyl]pyrido[3,2-d]pyrimidin-4(3H)-one dihydrochloride], the 50% inhibitory concentration (IC50) in series [1] is 28 nM. In addition, in the series on Rat hepatocytes, the GSH adduct formation entry is given as “Negative”.

In the case of `Cc1cc(-c2ccc(F)c(F)c2)nc2c(=O)n(C[C@@H](O)C[C@H]3NCCC[C@@H]3O)cnc12` [Example 27, 6-(3,4-difluorophenyl)-3-((S)-2-hydroxy-3-((2R,3S)-3-hydroxypiperidin-2-yl)propyl)-8-methylpyrido[3,2-d]pyrimidin-4(3H)-one dihydrochloride], in series [1], the IC50 was 172 nM.

`O=C(C[C@H]1NCCC[C@@H]1O)Cn1cnc2cccnc2c1=O` [Example 2, 3-{3-[(2R,3S)-3-Hydroxypiperidin-2-yl]-2-oxopropyl}pyrido[3,2-d]pyrimidin-4(3H)-one dihydrochloride]: in series [1], the IC50 was 15 nM. In addition, the GSH adduct formation entry in the series on Rat hepatocytes is recorded as “Negative”.

Take `O=c1c2cnccc2ncn1C[C@@H](O)C[C@H]1NCC[C@@H]1O` [Example 38, 3-{(S)-2-hydroxy-3-[(2R,3S)-3-hydroxypyrrolidin-2-yl]-propyl}pyrido[4,3-d]pyrimidin-4(3H)-one bis (2,2,2-trifluoroacetic acid)]: in series [1], the 50% inhibitory concentration (IC50) is 2300 nM.

As to `O=C(C[C@H]1NCCC[C@@H]1O)Cn1cnc2ccncc2c1=O` [Example 8, 3-{3-[(2R,3S)-3-hydroxypiperidin-2-yl]-2-oxopropyl}pyrido[4,3-d]pyrimidin-4(3H)-one dihydrochloride], the IC50 in series [1] came to 14 nM.

With `O=C(C[C@H]1NCCC[C@@H]1O)Cn1cnc2ccc(-c3cccc(Cl)c3)nc2c1=O` [Example 5, 6-(3-chlorophenyl)-3-{3-[(2R,3S)-3-hydroxypiperidin-2-yl]-2-oxopropyl}pyrido[3,2-d]pyrimidin-4(3H)-one dihydrochloride], in series [1], the IC50 is 10 nM.

Regarding `O=C(C[C@H]1NCCC[C@@H]1O)Cn1cnc2ccc(-c3cccc(F)c3)nc2c1=O` [Example 7, 6-(3-Fluorophenyl)-3-{3-[(2R,3S)-3-hydroxypiperidin-2-yl]-2-oxopropyl}pyrido[3,2-d]pyrimidin-4(3H)-one dihydrochloride], the IC50 in series [1] was 5 nM.

As for `Cc1cc(C2CC2)nc2c(=O)n(CC(=O)C[C@H]3NCCC[C@@H]3O)cnc12` [Example 12, 6-cyclopropyl-3-(3-((2R,3S)-3-hydroxypiperidin-2-yl)-2-oxopropyl)-8-methylpyrido[3,2-d]pyrimidin-4(3H)-one dihydrochloride], in series [1], the IC50 was 13 nM.

As for `Cc1cc(Cl)cc2c(=O)n(CC(=O)CC3CCCCN3)cnc12` (stereo not shown) [Example 4, 6-Chloro-8-methyl-3-[2-oxo-3-(piperidin-2-yl)propyl]quinazolin-4(3H)-one hydrochloride], the IC50 in series [1] amounted to 807 nM.

In the case of `O=C(C[C@H]1NCCC[C@@H]1O)Cn1cnc2ccc(-c3cccnc3)nc2c1=O` [Example 11, 3-{3-[(2R,3S)-3-hydroxypiperidin-2-yl]-2-oxopropyl}-6-(pyridin-3-yl)pyrido[3,2-d]pyrimidin-4(3H)-one trihydrochloride], in series [1], the IC50 turned out to be 9 nM.

As to `Cc1cc(C)c2ncn(C[C@@H](O)C[C@H]3NCCC[C@@H]3O)c(=O)c2n1` [Example 21, 3-{(S)-2-hydroxy-3-[(2R,3S)-3-hydroxypiperidin-2-yl]propyl}-6,8-dimethylpyrido[3,2-d]pyrimidin-4(3H)-one dihydrochloride], in series [1], the IC50 amounted to 491 nM.

For `Cc1cc(-c2cccc(F)c2)nc2c(=O)n(CC(=O)C[C@H]3NCCC[C@@H]3O)cnc12` [Example 14, 6-(3-fluorophenyl)-3{3-[(2R,3S)-3-hydroxypiperidin-2-yl]-2-oxopropyl}-8-methylpyrido[3,2-d]pyrimidin-4(3H)-one dihydrochloride], the IC50 in series [1] amounted to 7 nM.
